# PubChem BioAssay AID328 (DTP/NCI, 2004)
# Several values for one entry are separate records, joined by “and”; a condition that tells them apart may be missing. Identical values can stand only once. Inconclusive results and toxic doses are left out.
# Tested on: BDF1 mice, P388 leukemia ip, median survival T/C
# Assay: NCI In Vivo Anticancer Drug Screen. Data for tumor model P388 Leukemia (intraperitoneal) in B6D2F1 (BDF1) mice
# Settings: endpoint: median survival time, higher = longer survival
# Summary of the method: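 Each value expresses how treatment altered survival: treated-mouse outcome over vehicle-mouse outcome, both groups bearing the transplanted tumour.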
compound,measurement,setting,value
COC(=O)[C@@H](O)[C@](O)(CCC(C)C)C(=O)O[C@@H]1C(OC)=C[C@]23CCCN2CCc2cc4c(cc2[C@H]13)OCO4,T/C,"dose: 0.25 mg/kg/injection, schedule: Q01DX009 (ip), vehicle: saline",115 % of control
same,T/C,"dose: 0.25 mg/kg/injection, schedule: Q03HX008 (ip), vehicle: saline",115 % of control
same,T/C,"dose: 0.25 mg/kg/injection, schedule: Q03HX016 (ip), vehicle: saline",120 % of control
same,T/C,"dose: 0.38 mg/kg/injection, schedule: Q01DX010 (ip), vehicle: saline",118 % of control
same,T/C,"dose: 0.41 mg/kg/injection, schedule: Q01DX009 (ip), vehicle: saline",108 % of control
same,T/C,"dose: 0.5 mg/kg/injection, schedule: Q01DX006 (iv), vehicle: saline",100 % of control
same,T/C,"dose: 0.5 mg/kg/injection, schedule: Q01DX009 (ip), vehicle: saline",110 % of control
same,T/C,"dose: 0.5 mg/kg/injection, schedule: Q01DX009 (oral), vehicle: saline",110 % of control
same,T/C,"dose: 0.5 mg/kg/injection, schedule: Q01DX009 (sc), vehicle: saline",110 % of control
same,T/C,"dose: 0.5 mg/kg/injection, schedule: Q03HX008 (ip), vehicle: saline",110 % of control
same,T/C,"dose: 0.5 mg/kg/injection, schedule: Q03HX016 (ip), vehicle: saline",120 % of control
same,T/C,"dose: 0.62 mg/kg/injection, schedule: Q01DX009 (ip), vehicle: saline",108 % of control
same,T/C,"dose: 1.0 mg/kg/injection, schedule: Q01DX006 (iv), vehicle: saline",110 % of control
same,T/C,"dose: 1.0 mg/kg/injection, schedule: Q01DX009 (ip), vehicle: saline",120 % of control
same,T/C,"dose: 1.0 mg/kg/injection, schedule: Q01DX009 (oral), vehicle: saline",110 % of control
same,T/C,"dose: 1.0 mg/kg/injection, schedule: Q01DX009 (sc), vehicle: saline",110 % of control
same,T/C,"dose: 1.0 mg/kg/injection, schedule: Q03HX008 (ip), vehicle: saline",120 % of control
same,T/C,"dose: 1.0 mg/kg/injection, schedule: Q03HX024 (ip), vehicle: saline",200 % of control
same,T/C,"dose: 1.0 mg/kg/injection, schedule: Q04DX003 (ip), vehicle: saline",110 % of control
same,T/C,"dose: 1.5 mg/kg/injection, schedule: Q01DX009 (ip), vehicle: saline",118 % of control
same,T/C,"dose: 1.87 mg/kg/injection, schedule: Q01DX009 (ip), vehicle: water",150 % of control and 161 % of control
same,T/C,"dose: 2.0 mg/kg/injection, schedule: Q01DX001 (ip), vehicle: saline",100 % of control
same,T/C,"dose: 2.0 mg/kg/injection, schedule: Q01DX001 (iv), vehicle: saline",110 % of control
same,T/C,"dose: 2.0 mg/kg/injection, schedule: Q01DX001 (oral), vehicle: saline",110 % of control
same,T/C,"dose: 2.0 mg/kg/injection, schedule: Q01DX001 (sc), vehicle: saline",110 % of control
same,T/C,"dose: 2.0 mg/kg/injection, schedule: Q01DX006 (iv), vehicle: saline",120 % of control
same,T/C,"dose: 2.0 mg/kg/injection, schedule: Q01DX009 (ip), vehicle: saline",120 % of control
same,T/C,"dose: 2.0 mg/kg/injection, schedule: Q01DX009 (oral), vehicle: saline",110 % of control
same,T/C,"dose: 2.0 mg/kg/injection, schedule: Q01DX009 (sc), vehicle: saline",115 % of control
same,T/C,"dose: 2.0 mg/kg/injection, schedule: Q03HX016 (ip), vehicle: saline",177 % of control
same,T/C,"dose: 2.0 mg/kg/injection, schedule: Q03HX024 (ip), vehicle: saline",222 % of control
same,T/C,"dose: 2.0 mg/kg/injection, schedule: Q04DX003 (ip), vehicle: saline",115 % of control
same,T/C,"dose: 2.0 mg/kg/injection, schedule: Q08DX002 (ip), vehicle: saline",110 % of control
same,T/C,"dose: 3.0 mg/kg/injection, schedule: Q01DX010 (ip), vehicle: saline",181 % of control
same,T/C,"dose: 3.75 mg/kg/injection, schedule: Q01DX009 (ip), vehicle: water",172 % of control and 188 % of control
same,T/C,"dose: 4.0 mg/kg/injection, schedule: Q01DX001 (ip), vehicle: saline",110 % of control
same,T/C,"dose: 4.0 mg/kg/injection, schedule: Q01DX001 (iv), vehicle: saline",105 % of control
same,T/C,"dose: 4.0 mg/kg/injection, schedule: Q01DX001 (oral), vehicle: saline",110 % of control
same,T/C,"dose: 4.0 mg/kg/injection, schedule: Q01DX001 (sc), vehicle: saline",110 % of control
same,T/C,"dose: 4.0 mg/kg/injection, schedule: Q03HX008 (ip), vehicle: saline",166 % of control
same,T/C,"dose: 4.0 mg/kg/injection, schedule: Q04DX003 (ip), vehicle: saline",110 % of control
same,T/C,"dose: 4.0 mg/kg/injection, schedule: Q08DX002 (ip), vehicle: saline",105 % of control
same,T/C,"dose: 6.0 mg/kg/injection, schedule: Q01DX009 (ip), vehicle: saline",163 % of control
same,T/C,"dose: 6.0 mg/kg/injection, schedule: Q01DX010 (ip), vehicle: saline",182 % of control
same,T/C,"dose: 7.5 mg/kg/injection, schedule: Q01DX009 (ip), vehicle: saline",195 % of control
same,T/C,"dose: 7.5 mg/kg/injection, schedule: Q01DX009 (ip), vehicle: water",266 % of control and 272 % of control
same,T/C,"dose: 8.0 mg/kg/injection, schedule: Q01DX001 (ip), vehicle: saline",110 % of control
same,T/C,"dose: 8.0 mg/kg/injection, schedule: Q01DX001 (iv), vehicle: saline",110 % of control
same,T/C,"dose: 8.0 mg/kg/injection, schedule: Q01DX001 (oral), vehicle: saline",105 % of control
same,T/C,"dose: 8.0 mg/kg/injection, schedule: Q01DX001 (sc), vehicle: saline",100 % of control
same,T/C,"dose: 8.0 mg/kg/injection, schedule: Q01DX006 (iv), vehicle: saline",188 % of control
same,T/C,"dose: 8.0 mg/kg/injection, schedule: Q01DX009 (ip), vehicle: saline",235 % of control and 172 % of control and 222 % of control
same,T/C,"dose: 8.0 mg/kg/injection, schedule: Q01DX009 (oral), vehicle: saline",200 % of control
same,T/C,"dose: 8.0 mg/kg/injection, schedule: Q01DX009 (sc), vehicle: saline",200 % of control and 205 % of control
same,T/C,"dose: 12.0 mg/kg/injection, schedule: Q01DX010 (ip), vehicle: saline",208 % of control
same,T/C,"dose: 15.0 mg/kg/injection, schedule: Q01DX009 (ip), vehicle: water",105 % of control
same,T/C,"dose: 16.0 mg/kg/injection, schedule: Q01DX001 (ip), vehicle: saline",110 % of control
same,T/C,"dose: 16.0 mg/kg/injection, schedule: Q01DX001 (iv), vehicle: saline",120 % of control
same,T/C,"dose: 16.0 mg/kg/injection, schedule: Q01DX001 (oral), vehicle: saline",115 % of control
same,T/C,"dose: 16.0 mg/kg/injection, schedule: Q01DX001 (sc), vehicle: saline",110 % of control
same,T/C,"dose: 16.0 mg/kg/injection, schedule: Q01DX009 (ip), vehicle: saline",305 % of control and 209 % of control
same,T/C,"dose: 16.0 mg/kg/injection, schedule: Q01DX009 (oral), vehicle: saline",161 % of control
same,T/C,"dose: 16.0 mg/kg/injection, schedule: Q01DX009 (sc), vehicle: saline",105 % of control
same,T/C,"dose: 16.0 mg/kg/injection, schedule: Q04DX003 (ip), vehicle: saline",150 % of control
same,T/C,"dose: 24.0 mg/kg/injection, schedule: Q01DX010 (ip), vehicle: saline",252 % of control
same,T/C,"dose: 32.0 mg/kg/injection, schedule: Q08DX002 (ip), vehicle: saline",111 % of control
same,T/C,"dose: 125.0 micrograms/kg/injection, schedule: Q03HX024 (ip), vehicle: saline",100 % of control
same,T/C,"dose: 250.0 micrograms/kg/injection, schedule: Q03HX024 (ip), vehicle: saline",110 % of control
same,T/C,"dose: 500.0 micrograms/kg/injection, schedule: Q03HX024 (ip), vehicle: saline",120 % of control
